Usually IC50 stands for the concentration needed to halve the response being measured.

The results in this text go back to US20060100199A1, “Novel condensed imidazole derivatives” (priority 2003, published 2006).

Structures can show the parent of a compound that is named as a salt.

Assay [1] has as its target T1, Porcine kidney-derived DPP-IV (Sus scrofa, UniProt P22411).
T1 construct: Porcine kidney-derived DPP-IV was dissolved in a reaction buffer; from tissue; host or cells: porcine kidney
The experiment in a line: DPPIV-inhibiting activity assay. As to conditions: Gly-Pro-p-nitroanilide 0.33 mM, reaction time 20 minutes, absorbance at 405 nm. The class given is biochemical. As to the method: DPPIV-Inhibiting Activity Assay
Porcine kidney-derived DPP-IV was dissolved in a reaction buffer (50 mM Tris-HCl (pH 7.4)/0.1% BSA) at a concentration of 10 mg/ml. After 110 μl of this solution had been combined with 15 μl of an agent, the mixture was incubated at room temperature for 20 minutes. 25 μl of 2 mM Gly-Pro-p-nitroanilide was added (to a final concentration of 0.33 mM) to the solution to initiate the enzyme reaction. The reaction time was 20 minutes. 25 μl of 1N phosphoric acid solution was added to the reaction solution to quench the reaction.

The target in the next assay is T2, hERG channel (Homo sapiens, UniProt Q12809).
T2 construct: expressed in transfected cells; host or cells: HEK-293 cells (cell line established by the inventors)
T2 sequence (Q12809 whole entry): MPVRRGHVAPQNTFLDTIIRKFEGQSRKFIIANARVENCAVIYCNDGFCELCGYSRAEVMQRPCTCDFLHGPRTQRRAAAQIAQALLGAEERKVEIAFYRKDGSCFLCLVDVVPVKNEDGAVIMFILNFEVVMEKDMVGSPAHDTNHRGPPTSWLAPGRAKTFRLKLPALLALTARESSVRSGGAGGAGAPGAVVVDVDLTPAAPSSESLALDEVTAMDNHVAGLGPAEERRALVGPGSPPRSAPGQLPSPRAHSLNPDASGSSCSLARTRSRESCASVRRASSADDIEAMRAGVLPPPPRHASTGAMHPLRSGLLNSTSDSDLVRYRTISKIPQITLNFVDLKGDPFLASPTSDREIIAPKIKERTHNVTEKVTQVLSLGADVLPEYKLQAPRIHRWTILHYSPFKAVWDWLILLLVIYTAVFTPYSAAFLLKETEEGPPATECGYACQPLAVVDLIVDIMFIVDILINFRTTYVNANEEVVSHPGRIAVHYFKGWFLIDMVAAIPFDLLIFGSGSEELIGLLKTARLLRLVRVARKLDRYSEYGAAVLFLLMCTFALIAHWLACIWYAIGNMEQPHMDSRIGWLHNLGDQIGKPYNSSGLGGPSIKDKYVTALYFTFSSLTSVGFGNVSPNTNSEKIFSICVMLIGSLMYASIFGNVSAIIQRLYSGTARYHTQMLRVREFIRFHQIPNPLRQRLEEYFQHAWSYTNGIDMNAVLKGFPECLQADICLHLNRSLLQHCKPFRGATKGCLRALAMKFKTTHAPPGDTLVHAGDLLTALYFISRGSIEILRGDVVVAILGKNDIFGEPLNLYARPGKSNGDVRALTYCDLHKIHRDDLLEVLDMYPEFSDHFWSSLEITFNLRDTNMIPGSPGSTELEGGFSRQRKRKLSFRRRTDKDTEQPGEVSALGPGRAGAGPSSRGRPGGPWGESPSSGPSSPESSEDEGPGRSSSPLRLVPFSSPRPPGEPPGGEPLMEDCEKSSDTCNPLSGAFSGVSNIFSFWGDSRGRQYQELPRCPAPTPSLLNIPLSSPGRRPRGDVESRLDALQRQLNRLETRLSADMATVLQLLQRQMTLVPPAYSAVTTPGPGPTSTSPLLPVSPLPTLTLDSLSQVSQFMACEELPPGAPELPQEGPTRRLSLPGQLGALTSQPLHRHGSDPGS
The experiment in a line: Suppression of hERG channel current. The class given is cell-based. The following applies: HEK-293 cells with hERG channel gene (subtype 1), patch clamp, peak tail current at −50 mV. As to the method: <Suppression of hERG Channel Current>
(1) Activity towards inhibiting the hERG channel current was evaluated according to the report Zhou, Z et al, Biophysical Journal, 74(1), 230-241 (1998).
(2) This experiment was carried out using HEK-293 cells into which the hERG channel gene (subtype 1) had been introduced (the cell line was established by the inventors).
(3) One to several days before the experiment, cells were plated on a poly-lysine-coated glass plate. The cells were cultured until the day of the experiment. At the start of the experiment, the cell-seeded glass plate was transferred into a bath for current measurement. The hERG channel current was measured by the voltage clamp method using the patch clamp technique. The current was measured using a current amplifier (Axon Instruments). The current was recorded and analyzed using pCLAMP software (Axon Instruments).
(4) The hERG channel current was induced by applying to the cells a depolarizing pulse from a holding potential of −80 mV to +20 mV for 5 seconds and to −50 mV for 4 seconds, at 20 second intervals. After the current became stable in a control solution, the cells were perfused with solutions containing various concentrations of test compounds.
(5) The amplitude of the hERG channel current was defined as the peak value of the tail current observed upon restoring the potential to −50 mV. The inhibiting effect of a test compound on the hERG channel current (IC50) was estimated based on the change in the peak value of tail current upon addition of the test compound at various concentrations. The peak value of tail current recorded for a normal solution was taken as 100%.
(hERG is a cardiac potassium channel; its block is linked to QT prolongation.)

Another assay concerns the target T3, CYP2D6 (Homo sapiens, UniProt P10635).
T3 construct: purchased GENTEST Corp
The experiment in a line: Assessment for drug-metabolizing enzyme (cytochrome P450), CYP2D6. The assay is classed as in vitro ADME. As to conditions: recombinant P450, fluorescent substrate AMMC. As to the method: (§1) <Assessment for Drug-Metabolizing Enzyme (Cytochrome P450)>
(§2) The experimental conditions used are shown below. The fluorescence intensity was determined using a plate reader (CYTO FLUOR Multi-Well Plate Reader Series 4000; PerSeptive Biosystems Corp.). The degree of inhibition was determined as a mean value from nine independent assays […] using as an index the intensity fluorescence emitted from the metabolite of the fluorescent substrate.
(§3) The substrates, metabolites, inhibitors, excitation wavelengths, and fluorescence wavelengths used in the assay are shown in Table 2.

For another assay, the target named is T4, CYP3A4 (Homo sapiens, UniProt P08684).
T4 construct: purchased GENTEST Corp
T4 sequence (P08684 whole entry): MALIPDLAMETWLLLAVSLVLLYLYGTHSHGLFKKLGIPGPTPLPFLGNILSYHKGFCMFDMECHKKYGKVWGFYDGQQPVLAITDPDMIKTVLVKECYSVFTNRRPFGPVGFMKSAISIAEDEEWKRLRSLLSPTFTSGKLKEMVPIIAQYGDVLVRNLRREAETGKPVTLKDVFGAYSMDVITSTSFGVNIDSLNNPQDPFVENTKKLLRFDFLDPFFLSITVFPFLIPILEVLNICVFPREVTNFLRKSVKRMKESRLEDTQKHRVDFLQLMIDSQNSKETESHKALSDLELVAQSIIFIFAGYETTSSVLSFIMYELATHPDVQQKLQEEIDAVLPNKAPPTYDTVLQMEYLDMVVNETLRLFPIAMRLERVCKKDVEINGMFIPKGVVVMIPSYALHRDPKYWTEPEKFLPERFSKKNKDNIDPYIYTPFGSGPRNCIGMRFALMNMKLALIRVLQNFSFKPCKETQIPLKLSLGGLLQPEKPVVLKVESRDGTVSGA
The experiment in a line: Assessment for drug-metabolizing enzyme (cytochrome P450), CYP3A4. As to conditions: recombinant P450, fluorescent substrate BFC. The class given is in vitro ADME. As to the method:
as §1, §2, §3

For the next assay, the target named is T5, CYP2C19 (Homo sapiens, UniProt P33261).
T5 construct: purchased GENTEST Corp
T5 sequence (P33261 whole entry): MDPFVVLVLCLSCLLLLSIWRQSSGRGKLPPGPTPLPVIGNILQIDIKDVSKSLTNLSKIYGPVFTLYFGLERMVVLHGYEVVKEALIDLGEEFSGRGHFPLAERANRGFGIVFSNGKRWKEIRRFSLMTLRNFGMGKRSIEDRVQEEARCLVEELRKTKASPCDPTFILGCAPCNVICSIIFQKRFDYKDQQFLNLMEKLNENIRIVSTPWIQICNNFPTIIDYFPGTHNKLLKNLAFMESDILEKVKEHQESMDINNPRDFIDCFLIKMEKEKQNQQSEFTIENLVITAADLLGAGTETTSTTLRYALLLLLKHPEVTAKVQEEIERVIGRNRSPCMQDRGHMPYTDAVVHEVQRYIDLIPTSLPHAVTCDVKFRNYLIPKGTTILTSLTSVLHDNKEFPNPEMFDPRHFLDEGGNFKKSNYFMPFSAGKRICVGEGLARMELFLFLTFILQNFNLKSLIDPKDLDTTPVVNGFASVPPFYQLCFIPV
Nature of the assay: Assessment for drug-metabolizing enzyme (cytochrome P450), CYP2C19. The assay is classed as in vitro ADME. As to conditions: recombinant P450, fluorescent substrate CEC. The protocol:
as §1, §2, §3

The next assay deals with T6, CYP1A2 (Homo sapiens, UniProt P05177).
T6 construct: purchased GENTEST Corp
T6 sequence (P05177 1-516): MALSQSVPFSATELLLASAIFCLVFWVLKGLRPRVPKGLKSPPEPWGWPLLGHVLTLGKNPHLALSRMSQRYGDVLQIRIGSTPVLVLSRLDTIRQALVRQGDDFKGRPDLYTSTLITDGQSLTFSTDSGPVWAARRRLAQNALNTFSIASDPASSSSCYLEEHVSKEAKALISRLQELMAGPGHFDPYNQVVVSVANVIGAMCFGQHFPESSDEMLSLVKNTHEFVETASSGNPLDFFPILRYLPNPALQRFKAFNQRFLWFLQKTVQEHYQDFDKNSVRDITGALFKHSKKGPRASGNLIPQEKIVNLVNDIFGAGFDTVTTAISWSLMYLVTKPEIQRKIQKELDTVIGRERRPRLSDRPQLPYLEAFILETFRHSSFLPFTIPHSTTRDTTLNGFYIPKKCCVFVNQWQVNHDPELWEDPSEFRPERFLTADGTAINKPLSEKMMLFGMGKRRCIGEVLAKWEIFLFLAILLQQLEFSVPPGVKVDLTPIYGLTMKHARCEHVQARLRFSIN
Nature of the assay: Assessment for drug-metabolizing enzyme (cytochrome P450), CYP1A2. The assay is classed as in vitro ADME. The following applies: recombinant P450, fluorescent substrate CEC. The protocol: as §1, §2, §3

In the next assay the target is T7, CYP2C9 (Homo sapiens, UniProt P11712).
T7 construct: purchased GENTEST Corp
T7 sequence (P11712 whole entry): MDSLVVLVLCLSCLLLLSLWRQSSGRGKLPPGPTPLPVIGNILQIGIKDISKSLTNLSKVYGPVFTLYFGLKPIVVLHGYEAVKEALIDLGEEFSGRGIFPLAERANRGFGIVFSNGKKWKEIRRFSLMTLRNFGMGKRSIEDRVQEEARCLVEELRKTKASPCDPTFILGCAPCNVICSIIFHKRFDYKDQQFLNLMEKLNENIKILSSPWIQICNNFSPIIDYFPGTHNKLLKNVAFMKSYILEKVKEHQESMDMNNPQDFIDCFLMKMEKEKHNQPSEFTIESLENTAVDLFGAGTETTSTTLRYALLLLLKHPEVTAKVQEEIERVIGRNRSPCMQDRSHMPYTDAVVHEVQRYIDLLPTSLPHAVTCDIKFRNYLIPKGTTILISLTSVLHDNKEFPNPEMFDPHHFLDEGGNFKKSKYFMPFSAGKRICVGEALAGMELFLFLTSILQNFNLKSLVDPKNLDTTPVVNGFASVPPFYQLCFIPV
Nature of the assay: Assessment for drug-metabolizing enzyme (cytochrome P450), CYP2C9. The assay is classed as in vitro ADME. The following applies: recombinant P450, fluorescent substrate MFC. As to the method:
as §1, §2, §3

Another assay deals with male C57BL/6N mice. The experiment in a line: Acceptable timing of administration in in vivo test. As to conditions: oral, simultaneously with vs one hour before glucose loading (2 g/kg); improvement factor for glucose tolerance compared. As to the method: Acceptable Timing of Administration in in vivo Test
The respective tests described below were carried out in combination with the in vivo test (administration before 0.5 hour) as described in Assay Example 2:
1. A test compound is administered simultaneously with glucose loading (2 g/kg) (the test compound is suspended in an aqueous solution of 0.5% methyl cellulose; the solution is combined with an equal volume of a glucose solution; and the mixture is administered orally at a dose of 10 ml/kg);
2. A test compound is administered one hour before glucose loading (2 g/kg) (the test compound suspended in an aqueous solution of 0.5% methyl cellulose is administered orally one hour before the oral administration of the glucose solution; each is given orally at a dose of 10 ml/kg).
The improvement factor for glucose tolerance is estimated in each test.

Another assay relates to fasted male Wistar rats. The experiment in a line: Effect on the blood glucose level of fasted male Wistar rats (in vivo test). As to conditions: oral dose of 10-30 (mg/kg); 0.5, 1 and 3 hours after administration; compared with control group treated with the medium alone. The protocol: Purpose: Effect of a Test Compound on the Blood Glucose Level of Fasted Male Wistar Rats
Animal: male Wistar rats (purchased from Charles River Japan, Inc.)
A test compound was suspended in 0.5% methyl cellulose (MC) solution and administered orally at a dose of 5 mL/kg. The control group was treated with a 0.5% MC solution. The solution was administered orally at a dose of 5 mL/kg.
Immediately before administering a test compound or 0.5% MC solution, and 0.5, 1, and 3 hours after the administration, without anesthetic the caudal vein was lightly cut with a razor blade to let the blood out. 10 μL of blood was collected and combined with 140 μL of 0.6 M perchloric acid solution. The sample was centrifuged at 3000 g at 4° C. for 10 minutes and the resultant supernatant was assayed with the Glucose CII TEST WAKO (Wako Pure Chemical Industries).

T1 sequence (P22411 whole entry): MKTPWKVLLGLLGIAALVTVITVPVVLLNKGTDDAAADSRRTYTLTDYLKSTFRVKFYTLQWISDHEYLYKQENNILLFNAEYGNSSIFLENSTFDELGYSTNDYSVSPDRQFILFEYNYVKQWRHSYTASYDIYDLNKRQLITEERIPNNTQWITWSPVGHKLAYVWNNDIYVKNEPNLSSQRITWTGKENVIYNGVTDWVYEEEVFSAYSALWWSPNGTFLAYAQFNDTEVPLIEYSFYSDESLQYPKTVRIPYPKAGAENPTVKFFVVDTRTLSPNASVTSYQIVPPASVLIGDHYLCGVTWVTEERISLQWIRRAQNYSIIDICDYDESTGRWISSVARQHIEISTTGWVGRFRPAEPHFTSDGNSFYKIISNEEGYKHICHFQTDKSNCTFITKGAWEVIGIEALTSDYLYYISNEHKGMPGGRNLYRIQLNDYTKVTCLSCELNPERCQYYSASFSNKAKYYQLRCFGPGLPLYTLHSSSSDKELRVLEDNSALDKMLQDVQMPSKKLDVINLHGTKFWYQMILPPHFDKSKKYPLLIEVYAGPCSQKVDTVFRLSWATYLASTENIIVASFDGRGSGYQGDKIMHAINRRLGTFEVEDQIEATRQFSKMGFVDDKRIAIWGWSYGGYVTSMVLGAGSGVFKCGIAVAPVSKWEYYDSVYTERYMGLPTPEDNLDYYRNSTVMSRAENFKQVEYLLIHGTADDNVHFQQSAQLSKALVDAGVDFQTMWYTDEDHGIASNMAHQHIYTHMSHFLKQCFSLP
T3 sequence (P10635 whole entry): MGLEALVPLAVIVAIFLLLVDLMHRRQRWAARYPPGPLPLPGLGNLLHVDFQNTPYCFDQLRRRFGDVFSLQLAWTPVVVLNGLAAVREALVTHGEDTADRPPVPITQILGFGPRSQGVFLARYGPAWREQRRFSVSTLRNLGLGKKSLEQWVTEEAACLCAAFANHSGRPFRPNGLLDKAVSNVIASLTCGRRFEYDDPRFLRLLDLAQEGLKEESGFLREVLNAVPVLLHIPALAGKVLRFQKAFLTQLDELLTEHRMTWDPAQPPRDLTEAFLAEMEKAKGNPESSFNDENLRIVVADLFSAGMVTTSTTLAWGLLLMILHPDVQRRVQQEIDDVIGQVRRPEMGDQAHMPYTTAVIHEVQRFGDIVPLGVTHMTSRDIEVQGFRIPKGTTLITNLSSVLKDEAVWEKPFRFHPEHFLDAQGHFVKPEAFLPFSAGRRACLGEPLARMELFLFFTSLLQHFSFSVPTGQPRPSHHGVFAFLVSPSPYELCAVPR

`CC#CCn1c(N2CCNCC2)nc2nc(Oc3ccccc3CC(=O)OC)n(C)c(=O)c21` [Example 4, Methyl 2-[7-(2-butynyl)-1-methyl-6-oxo-8-(piperazin-1-yl)-6,7-dihydro-1H-purin-2-yloxy]phenylacetate trifluoroacetate]: the IC50 in assay [1] turned out to be 0.211 µM.
In the case of `CC#CCn1c(N2CCNCC2)nc2nc(C#N)n(C)c(=O)c21.O=C(O)C(F)(F)F` [Example 82, 7-(2-Butynyl)-2-cyano-1-methyl-8-(piperazin-1-yl)-1,7-dihydropurin-6-one trifluoroacetate], the IC50 on hERG channel was ≥ 30 µM; on CYP2D6 it was ≥ 10 µM; on CYP3A4 it was ≥ 10 µM; at CYP2C19 it was ≥ 10 µM; on CYP1A2, ≥ 10 µM; on CYP2C9, ≥ 10 µM. For the same compound, the “range of acceptable timing of administration” value (“range” for short) in the assay on male C57BL/6N mice is recorded as “sufficiently wide ranges of acceptable timing of administration”. Besides, the “change in the blood glucose level” value in the assay with fasted male Wistar rats was “no significant change”.
In assay [1], `CC#CCn1c(N2CCNCC2)nc2nc(C(N)=O)n(C)c(=O)c21` [Example 83, 7-(2-Butynyl)-1-methyl-6-oxo-8-(piperazin-1-yl)-6,7-dihydro-1H-purine-2-carboxamide] showed an IC50 of 0.0274 µM.
Consider `CC#CCn1c(N2CCNCC2)nc2cnn(C)c(=O)c21` [Example 119, 3-(2-Butynyl)-5-methyl-2-(piperazin-1-yl)-3,5-dihydroimidazo[4,5-d]pyridazin-4-one], for which the IC50 is ≥ 30 µM on hERG channel; ≥ 10 µM at CYP2D6; ≥ 10 µM at CYP3A4; ≥ 10 µM on CYP2C19; ≥ 10 µM on CYP1A2; ≥ 10 µM on CYP2C9. Also, the “range” value in the assay on male C57BL/6N mice is “sufficiently wide ranges of acceptable timing of administration”. In addition, the “change in the blood glucose level” value in the assay with fasted male Wistar rats was “no significant change”.
With `CC#CCn1c(N2CCCC(N)C2)nc2cnn(C)c(=O)c21.O=C(O)C(F)(F)F` (centres unmarked) [Example 120, 2-(3-Aminopiperidin-1-yl)-3-(2-butynyl)-5-methyl-3,5-dihydroimidazo[4,5-d]pyridazin-4-one trifluoroacetate], the IC50 on hERG channel is ≥ 30 µM; at CYP2D6, ≥ 10 µM; at CYP3A4 it was ≥ 10 µM; at CYP2C19 it was ≥ 10 µM; on CYP1A2 it was ≥ 10 µM; on CYP2C9 it was ≥ 10 µM. In the assay with male C57BL/6N mice, the “range” value is recorded as “sufficiently wide ranges of acceptable timing of administration”. The “change in the blood glucose level” value with fasted male Wistar rats is “no significant change”.
In the case of `CC#CCn1c(N2CCNCC2)nc2nc(Oc3ccccc3C(N)=O)n(C)c(=O)c21` [Example 122, 2-[7-(2-Butynyl)-1-methyl-6-oxo-8-(piperazin-1-yl)-6,7-dihydro-1H-purin-2-yloxy]benzamide], the IC50 at hERG channel is ≥ 30 µM; at CYP2D6, ≥ 10 µM; at CYP3A4, ≥ 10 µM; at CYP2C19, ≥ 10 µM; on CYP1A2 it was ≥ 10 µM; on CYP2C9, ≥ 10 µM. In assay [1], this compound came in with an IC50 of 0.0153 µM. Moreover, the “range” value in the assay on male C57BL/6N mice was “sufficiently wide ranges of acceptable timing of administration”. Moreover, in the assay on fasted male Wistar rats, the “change in the blood glucose level” value is listed as “no significant change”.
Regarding `CC#CCn1c(N2CCNCC2)nc2nc(C#N)n(Cc3ccccc3C#N)c(=O)c21.Cl` [Example 229, 7-(2-Butynyl)-1-(2-cyanobenzyl)-6-oxo-8-(piperazin-1-yl)-6,7-dihydro-1H-purine-2-carbonitrile hydrochloride], the IC50 against hERG channel was ≥ 30 µM; at CYP2D6, ≥ 10 µM; on CYP3A4, ≥ 10 µM; at CYP2C19, ≥ 10 µM; on CYP1A2 it was ≥ 10 µM; at CYP2C9 it was ≥ 10 µM. Moreover, in the assay with male C57BL/6N mice, the “range” value is recorded as “sufficiently wide ranges of acceptable timing of administration”. Moreover, the “change in the blood glucose level” value in the assay with fasted male Wistar rats is given as “no significant change”.
Take `CC#CCn1c(N2CCNCC2)nc2nc(Oc3ccccc3C(N)=O)n(Cc3ccc(C#N)cc3)c(=O)c21` [Example 235, 2-[7-(2-Butynyl)-1-(4-cyanobenzyl)-6-oxo-8-(piperazin-1-yl)-6,7-dihydro-1H-purin-2-yloxy]benzamide trifluoroacetate]: in [1], it took 0.00144 µM to reach half-maximal inhibition (IC50).
On the same count and under the same terms, the value for `CC#CCn1c(N2CCNCC2)nc2nc(Oc3ccccc3C(N)=O)n(Cc3cccc(C#N)c3)c(=O)c21` [Example 238, 2-[7-(2-Butynyl)-1-(3-cyanobenzyl)-6-oxo-8-(piperazin-1-yl)-6,7-dihydro-1H-purin-2-yloxy]benzamide trifluoroacetate] was 0.00119 µM.
As for `CC#CCn1c(N2CCNCC2)nc2cnn(Cc3ccccc3C#N)c(=O)c21.O=C(O)C(F)(F)F` [Example 267, 2-[3-(2-Butynyl)-4-oxo-2-(piperazin-1-yl)-3,4-dihydroimidazo[4,5-d]pyridazin-5-ylmethyl]benzonitrile trifluoroacetate], the IC50 against hERG channel was ≥ 30 µM; at CYP2D6, ≥ 10 µM; on CYP3A4 it was ≥ 10 µM; on CYP2C19 it was ≥ 10 µM; at CYP1A2, ≥ 10 µM; at CYP2C9, ≥ 10 µM. In the assay on male C57BL/6N mice, the “range” value is “sufficiently wide ranges of acceptable timing of administration”. Also, the “change in the blood glucose level” value in the assay with fasted male Wistar rats was “no significant change”.
